According to patent US20160038526A1, “TREATMENT OF PROSTATE CANCER” (THOMAS JEFFERSON UNIVERSITY, priority 2012, published 2016):

Assays:
Stat5 = molecular target: T1, Stat5 (Homo sapiens, UniProt P42229); assay: Prolactin-induced Stat5 phosphorylation in CWR22Rv1 cells (immunoprecipitation/Western blot); format: cell-based; details: CWR22Rv1 cells, 25, 50 and 100 μM for 2 h, 10 nM Prl 30 minutes
T1 construct: endogenous in cells; host or cells: CWR22Rv1
Description: CWR22Rv1 cells were starved for 24 h in serum-free medium, treated N6BAP at 25, 50 and 100 μM concentrations for 2 h, followed by stimulation with 10 nM Prl for 30 minutes. Stat5a and Jak2 were immunoprecipitated with anti-Stat5a or anti-Jak2 pAbs. Immunoprecipitates of CWR22Rv1 cells were blotted with anti-PYStat5, anti-Stat5a/b mAb or anti-PY mAb (for Jak2). Whole cell lysates were immunoblotted with anti-actin pAb for loading control. Because SH2-domain of Stat5 mediates the recruitment of Stat5 to the Prl-receptor-Jak2-complex and Stat5 phosphorylation, N6BAP inhibits Prl-induced phosphorylation of Stat5.
The protocol in more detail comprised the following. Cell pellets were solubilized in lysis buffer [10 mM Tris-HCl (pH 7.6), 5 mM EDTA, 50 mM sodium chloride, 30 mM sodium pyrophosphate, 50 mM sodium fluoride, 1 mM sodium orthovanadate, 1% Triton X-100, 1 mM phenylmethylsulfonyl fluoride, 5 μg/mlaprotinin, 1 μg/ml pepstatin A, and 2 μg/ml leupeptin], rotated end-over-end at 4° C. for 60 min, and insoluble material was pelleted at 12,000×g for 30 min at 4° C. The protein concentrations of clarified cell lysates were determined by simplified Bradford method (Bio-Rad Laboratories, Hercules, Calif.). Stat5a, Stat5b and Jak2 were immunoprecipitated from whole cell lysates with anti-Stat5a, anti-Stat5b (4 μl/ml; Millipore, Billerica, Mass.) or anti-Jak2 (Millipore) pAbs. […]

HT1080 (fibrosarcoma) = assay: Cell viability assay, HT1080; format: cell-based
HepG2 (hepatocellular) = assay: Cell viability assay, HepG2; format: cell-based
CWR22Rv1 xenograft tumor = assay: CWR22Rv1 human prostate tumor xenograft in nude mice: tumor growth, viable cells, TUNEL; format: in vivo; details: nude mice, 25, 50 or 100 mg/kg intraperitoneal daily for 10 days
Description: 1.5×10^7 CWR22Rv1 cells in 0.1 ml RPMI 1640 medium were mixed with 0.1 ml of Matrigel (BD Bioscience, Palo Alto, Calif.), and were inoculated subcutaneously (s.c.) into one flank per mouse. Established tumors were randomly distributed into five groups (ten mice for each group) with similar average size. N6BAP was dissolved in 0.3% hydroxycellulose (HPC). Mice were treated daily for 10 days by intraperitoneal injection with 0.2 ml of N6BAP at 25 mg/kg, 50 mg/kg or 100 mg/kg body weight, or with 0.2 ml 0.3% HPC solution, or no treatment for control. Tumor sizes were measured three times per week. Tumor volumes were calculated using the following formula: 3.14×length×width×depth/6. Tumor growth rates were calculated, and percent changes in tumor volume of each group were presented. […] Individual tumors are represented as columns.
Tumor sections were hematoxylin-eosin stained to assess the loss of viable tumor cells. The results are shown in FIG. 12A, showing the loss of live epithelial cells with the […] N6BAP-treated CWR22Rv1 xenograft tumors vs. controls.
In situ end labeling of fragmented DNA was carried out according to the terminal deoxyribonucleotidyl transferse (TdT)-mediated biotin-16-dUTP nick-end labeling (TUNEL) assay to determine that cells within the CWR22Rv1 tumors were undergoing apoptosis. The assay was performed according to the In situ Cell Death Detection Kit from Roche Applied Science. Briefly, rehydrated deparaffinated tissue sections from the xenograft tumors were treated by Proteinase K followed by 3% H2O2 at room temperature. […] Nucleotides incorporated into fragmented DNA were detected after incubation with anti-fluorescein antibody conjugated with peroxidase followed by visualization with 3,3-diaminobenzidine as a chromogen and methyl green as a counterstain. […] Cell viability indexes were determined by counting alive cells per total number of cells per view established in the no treatment group. TUNEL indexes were determined by counting epithelial cells with TUNEL-positive cells per total number of epithelial cells per view. […]

[1] = test system: human clinical prostate cancer explants; assay: Clinical prostate cancers ex vivo in explant organ cultures: viability of epithelium; format: cell-based; details: eight patients, 7 days, N6BAP 5, 10, 25, 50 and 100 μM
Excerpt: For organ cultures, prostate cancer specimens were obtained during surgery from eight patients with localized or locally advanced prostate cancer undergoing radical prostatectomy and bilateral iliac lymphadenectomy. The specimens are identified in Table 1.
The specimens comprised de-identified excess tissue obtained after the completion of pathology diagnosis. A zero-sample prior to organ culture was formalin-fixed for each individual prostate cancer for the analysis of the nuclear Stat5a/b status. The prostate organ cultures were performed as described earlier (Ahonen et al., Endocrinology (2002), 143:228-238). Briefly, prostate cancer tissue was cut into approximately 1 mm^3 pieces in a plain culture medium and transferred onto lens papers lying on stainless steel grids in petri dishes. […] Tissue explants were cultured in a medium containing the N6BAP or control compound C5 at indicated concentrations (C5: […]; N6BAP: 5, 10, 25, 50 and 100 μM) 7 days, after which the explants were fixed in formalin and analyzed for Stat5a/b activation and viability of prostate cancer epithelial compartment. Viability of the epithelial cells in the prostate cancer explants at the end of the cultures were scored by counting the viable epithelial cells per explant.

T1 sequence (P42229 whole entry): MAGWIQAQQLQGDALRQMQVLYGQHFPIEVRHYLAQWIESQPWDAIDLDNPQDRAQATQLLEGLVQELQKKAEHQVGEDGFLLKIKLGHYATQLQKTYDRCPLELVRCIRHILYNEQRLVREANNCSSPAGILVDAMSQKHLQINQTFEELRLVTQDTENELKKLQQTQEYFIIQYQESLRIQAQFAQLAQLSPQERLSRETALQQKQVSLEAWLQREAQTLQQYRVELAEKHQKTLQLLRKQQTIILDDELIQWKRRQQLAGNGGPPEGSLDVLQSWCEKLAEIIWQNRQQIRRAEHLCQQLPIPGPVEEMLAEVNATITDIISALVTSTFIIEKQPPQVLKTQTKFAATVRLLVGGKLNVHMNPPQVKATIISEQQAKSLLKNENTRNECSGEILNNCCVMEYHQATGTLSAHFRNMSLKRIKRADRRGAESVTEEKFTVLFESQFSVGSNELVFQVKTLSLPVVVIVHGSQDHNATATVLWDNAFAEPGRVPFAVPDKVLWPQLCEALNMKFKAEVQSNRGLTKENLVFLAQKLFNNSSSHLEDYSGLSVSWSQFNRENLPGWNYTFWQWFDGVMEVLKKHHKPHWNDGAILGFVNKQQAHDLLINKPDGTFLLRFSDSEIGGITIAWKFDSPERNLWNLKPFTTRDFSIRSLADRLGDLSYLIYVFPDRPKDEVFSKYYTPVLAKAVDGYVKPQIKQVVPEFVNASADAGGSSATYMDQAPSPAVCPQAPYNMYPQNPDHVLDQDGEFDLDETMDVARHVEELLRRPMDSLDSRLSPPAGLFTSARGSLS

- Prl-induced phosphorylation of Stat5 (Stat5): inhibits Stat5 phosphorylation
SMILES: O=P(O)(O)OC[C@H]1O[C@@H](n2cnc3c(NCc4ccccc4)ncnc32)[C@H](O)[C@@H]1O [N6BAP, N^6-benzyladenosine-5′-monophosphate]
- cell viability (HT1080 (fibrosarcoma)): did not affect the viability
- cell viability (HepG2 (hepatocellular)): did not affect the viability
- apoptotic epithelial cells in tumor xenografts (TUNEL) (CWR22Rv1 xenograft tumor): increased apoptotic epithelial cells
- live epithelial cells in tumor xenografts (hematoxylin-eosin staining) (CWR22Rv1 xenograft tumor): decreased the number of live epithelial cells
- xenograft tumor growth (tumor volume) (CWR22Rv1 xenograft tumor): inhibited the growth of the xenograft tumor in a dose-dependent manner
- viability of prostate cancer epithelium in explant organ cultures [1]: induced extensive death of prostate cancer epithelium
